Test results from patent US20250195513A1, “DEGRADATION OF IRAK4 BY CONJUGATION OF IRAK4 INHIBITORS WITH E3 LIGASE LIGAND AND METHODS OF USE” (BeiGene, Ltd., priority 2022, published 2025).

Columns and labels:
IRAK4 [1] = target: T1, IRAK4 (Homo sapiens, UniProt Q9NWZ3); assay: IRAK4 Degradation Assay with Human Serum (Karpas299, HTRF/TR-FRET); assay type: cell-based; conditions: Karpas-299 in human serum, 24 hrs treatment; for DC50: read-out: IRAK4 degradtion with human serum assay DC50; for Dmax: read-out: IRAK4 degradtion with human serum assay Dmax (%)
T1 construct: endogenous in cells; host or cells: Karpas299
T1 sequence (Q9NWZ3 1-460): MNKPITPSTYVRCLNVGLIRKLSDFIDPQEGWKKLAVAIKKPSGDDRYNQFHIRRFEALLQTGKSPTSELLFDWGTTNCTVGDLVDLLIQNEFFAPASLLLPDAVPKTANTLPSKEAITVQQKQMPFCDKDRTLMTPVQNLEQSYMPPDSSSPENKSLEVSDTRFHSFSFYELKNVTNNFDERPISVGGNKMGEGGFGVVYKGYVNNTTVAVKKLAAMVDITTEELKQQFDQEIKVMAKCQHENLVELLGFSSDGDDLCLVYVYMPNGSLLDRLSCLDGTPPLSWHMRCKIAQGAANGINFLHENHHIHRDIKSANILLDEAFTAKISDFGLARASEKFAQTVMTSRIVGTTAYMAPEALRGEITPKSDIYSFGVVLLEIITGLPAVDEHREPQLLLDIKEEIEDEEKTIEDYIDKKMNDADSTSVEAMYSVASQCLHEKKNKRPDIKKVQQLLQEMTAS
Procedure, shortened: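 Remaining IRAK4 measured by TR-FRET immunoassay on lysates of Karpas299 cells exposed 24 h to compound dilution series in human serum AB. DC50 derived from a Hill-slope fit of % degradation versus concentration.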

IRAK4 [2] = target: T1, IRAK4; assay: IRAK4 Degradation Assay (Karpas299, HTRF/TR-FRET); assay type: cell-based; conditions: Karpas-299 cells, 24 h treatment; for Dmax: maximum percentage of degradation, read-out: IRAK4 in Karpas-299 (24 h) Dmax (%); for DC50: read-out: IRAK4 in Karpas-299 (24 h) DC50
Procedure, shortened: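 Compound potency as DC50 (IC50) came from four-parameter fits of percent IRAK4 degradation. IRAK4 was measured by HTRF (665/620 nm) in lysates of Karpas299 cells seeded at 0.2 million per well. Cells had been treated with compound dilutions for 5 or 24 h.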

Compound: COC[C@H]1CN(C(=O)C2CN(c3cc(F)c([C@H]4CCC(=O)NC4=O)c(F)c3)C2)CCN1[C@H]1CC[C@H](n2cc3cc(NC(=O)c4ccc5cc(C#N)cnn45)c(C(C)(C)O)cc3n2)CC1 [Example 184, 3-cyano-N-(2-((1R,4r)-4-((R)-4-(1-(4-((R)-2,6-dioxopiperidin-3-yl)-3,5-difluorophenyl)azetidine-3-carbonyl)-2-(methoxymethyl)piperazin-1-yl)cyclohexyl)-6-(2-hydroxypropan-2-yl)-2H-indazol-5-yl)pyrrolo[1,2-b]pyridazine-7-carboxamide]
- DC50 (IRAK4 [1]): 126 nM
- Dmax (IRAK4 [1]): 97%
- Dmax (IRAK4 [2]): 96%
- DC50 (IRAK4 [2]): 0.7 nM

Compound: COC[C@@H]1CN([C@H]2CC[C@H](n3cc4cc(NC(=O)c5ccc6cc(C#N)cnn56)c(C(C)(C)O)cc4n3)CC2)CCN1C(=O)C1CN(c2cc(F)c(N3CCC(=O)NC3=O)c(F)c2)C1 [Example 410, 3-cyano-N-(2-((1S,4r)-4-((S)-4-(1-(4-(2,4-dioxotetrahydropyrimidin-1(2H)-yl)-3,5-difluorophenyl)azetidine-3-carbonyl)-3-(methoxymethyl)piperazin-1-yl)cyclohexyl)-6-(2-hydroxypropan-2-yl)-2H-indazol-5-yl)pyrrolo[1,2-b]pyridazine-7-carboxamide]
- DC50 (IRAK4 [1]): 18 nM
- Dmax (IRAK4 [1]): 91%
- Dmax (IRAK4 [2]): 98%
- DC50 (IRAK4 [2]): 1.8 nM

Compound: Cc1nc(C2CCC(=O)NC2=O)ccc1N1CCC(N2CCN(C[C@H]3CC[C@H](n4cc5cc(NC(=O)c6ccc7cc(C#N)cnn67)c(C(C)(C)O)cc5n4)CC3)CC2)CC1 (some centres unmarked) [Example 420, 3-cyano-N-(2-((1r,4r)-4-((4-(1-(6-(2,6-dioxopiperidin-3-yl)-2-methylpyridin-3-yl)piperidin-4-yl)piperazin-1-yl)methyl)cyclohexyl)-6-(2-hydroxypropan-2-yl)-2H-indazol-5-yl)pyrrolo[1,2-b]pyridazine-7-carboxamide]
- DC50 (IRAK4 [1]): 17 nM
- Dmax (IRAK4 [1]): 96%
- Dmax (IRAK4 [2]): 97%
- DC50 (IRAK4 [2]): 2.8 nM

Compound: CC(C)(O)c1cc2nn([C@H]3CC[C@H](N4CCN(CCc5cc(F)c([C@H]6CCC(=O)NC6=O)c(F)c5)C[C@@H]4CC#N)CC3)cc2cc1NC(=O)c1ccc2cc(C#N)cnn12 [Example 389, 3-cyano-N-(2-((1S,4r)-4-((S)-2-(cyanomethyl)-4-(4-((R)-2,6-dioxopiperidin-3-yl)-3,5-difluorophenethyl)piperazin-1-yl)cyclohexyl)-6-(2-hydroxypropan-2-yl)-2H-indazol-5-yl)pyrrolo[1,2-b]pyridazine-7-carboxamide]
- DC50 (IRAK4 [1]): 13 nM
- Dmax (IRAK4 [1]): 100%
- Dmax (IRAK4 [2]): 94%
- DC50 (IRAK4 [2]): 1 nM

Compound: COc1cc2nn([C@H]3CC[C@H](N4CCN(C(=O)C5CN(c6cc(F)c([C@H]7CCC(=O)NC7=O)c(F)c6)C5)CC4)CC3)cc2cc1NC(=O)c1ccc2cc(C#N)cnn12 [Example 336, 3-cyano-N-(2-((1r,4r)-4-(4-(1-(4-((R)-2,6-dioxopiperidin-3-yl)-3,5-difluorophenyl)azetidine-3-carbonyl)piperazin-1-yl)cyclohexyl)-6-methoxy-2H-indazol-5-yl)pyrrolo[1,2-b]pyridazine-7-carboxamide]
- DC50 (IRAK4 [1]): 13 nM
- Dmax (IRAK4 [1]): 92%
- Dmax (IRAK4 [2]): 100%
- DC50 (IRAK4 [2]): 0.2 nM

Compound: COC[C@H]1CN(C2CCN(c3cc(F)c([C@H]4CCC(=O)NC4=O)c(F)c3)CC2)CCN1[C@H]1CC[C@H](n2cc3cc(NC(=O)c4ccc5cc(C#N)cnn45)c(C(C)(C)O)cc3n2)CC1 [Example 324, 3-cyano-N-(2-((1R,4r)-4-((R)-4-(1-(4-((R)-2,6-dioxopiperidin-3-yl)-3,5-difluorophenyl)piperidin-4-yl)-2-(methoxymethyl)piperazin-1-yl)cyclohexyl)-6-(2-hydroxypropan-2-yl)-2H-indazol-5-yl)pyrrolo[1,2-b]pyridazine-7-carboxamide]
- DC50 (IRAK4 [1]): 23 nM
- Dmax (IRAK4 [1]): 99%
- Dmax (IRAK4 [2]): 95%
- DC50 (IRAK4 [2]): 1 nM

Compound: CC(C)(O)c1cc2nn([C@H]3CC[C@H](N4CCN(C[C@H]5CCN(c6ccc7c(c6)C(=O)N(C6CCC(=O)NC6=O)C7=O)C5)CC4)CC3)cc2cc1NC(=O)c1ccc2cc(C#N)cnn12 (stereo partly drawn) [Example 432, 3-cyano-N-(2-((1R,4r)-4-(4-(((3R)-1-(2-(2,6-dioxopiperidin-3-yl)-1,3-dioxoisoindolin-5-yl)pyrrolidin-3-yl)methyl)piperazin-1-yl)cyclohexyl)-6-(2-hydroxypropan-2-yl)-2H-indazol-5-yl)pyrrolo[1,2-b]pyridazine-7-carboxamide]
- DC50 (IRAK4 [1]): 14 nM
- Dmax (IRAK4 [1]): 92%
- Dmax (IRAK4 [2]): 95%
- DC50 (IRAK4 [2]): 1.9 nM

Compound: CC(C)(O)c1cc2nn([C@H]3CC[C@H](N4CCN([C@H]5C[C@H](c6ccc(N[C@@H]7CCC(=O)NC7=O)cc6)C5)CC4)CC3)cc2cc1NC(=O)c1ccc2cc(C#N)cnn12 [Example 272, 3-cyano-N-(2-((1R,4r)-4-(4-((1R,3R)-3-(4-(((R)-2,6-dioxopiperidin-3-yl)amino)phenyl)cyclobutyl)piperazin-1-yl)cyclohexyl)-6-(2-hydroxypropan-2-yl)-2H-indazol-5-yl)pyrrolo[1,2-b]pyridazine-7-carboxamide]
- DC50 (IRAK4 [1]): 19 nM
- Dmax (IRAK4 [1]): 94%
- Dmax (IRAK4 [2]): 96%
- DC50 (IRAK4 [2]): 6.7 nM

Compound: CC(C)(O)c1cc2nn([C@H]3CC[C@H](CN4CCN(CCNc5cccc6c5C(=O)N(C5CCC(=O)NC5=O)C6=O)CC4)CC3)cc2cc1NC(=O)c1ccc2cc(C#N)cnn12 (some centres unmarked) [Example 438, 3-cyano-N-(2-((1r,4r)-4-((4-(2-((2-(2,6-dioxopiperidin-3-yl)-1,3-dioxoisoindolin-4-yl)amino)ethyl)piperazin-1-yl)methyl)cyclohexyl)-6-(2-hydroxypropan-2-yl)-2H-indazol-5-yl)pyrrolo[1,2-b]pyridazine-7-carboxamide]
- DC50 (IRAK4 [1]): 17 nM
- Dmax (IRAK4 [1]): 96%
- Dmax (IRAK4 [2]): 96%
- DC50 (IRAK4 [2]): 2.5 nM

Compound: COC[C@H]1CN([C@H]2CC[C@H](n3cc4cc(NC(=O)c5ccc6cc(C#N)cnn56)c(C(C)(C)O)cc4n3)CC2)CCN1C1CCN(c2ccc(C3CCC(=O)NC3=O)nc2C)CC1 (stereo partly drawn) [Example 422, 3-cyano-N-(2-((1R,4r)-4-((3R)-4-(1-(6-(2,6-dioxopiperidin-3-yl)-2-methylpyridin-3-yl)piperidin-4-yl)-3-(methoxymethyl)piperazin-1-yl)cyclohexyl)-6-(2-hydroxypropan-2-yl)-2H-indazol-5-yl)pyrrolo[1,2-b]pyridazine-7-carboxamide]
- DC50 (IRAK4 [1]): 5.2 nM
- Dmax (IRAK4 [1]): 97%
- Dmax (IRAK4 [2]): 97%
- DC50 (IRAK4 [2]): 2.1 nM

Compound: C[C@@H]1CN(C(=O)C2CN(c3cc(F)c(N4CCC(=O)NC4=O)c(F)c3)C2)CCN1[C@H]1CC[C@H](n2cc3cc(NC(=O)c4ccc5cc(C#N)cnn45)c(C(C)(C)O)cc3n2)CC1 [Example 303, 3-cyano-N-(2-((1R,4r)-4-((R)-4-(1-(4-(2,4-dioxotetrahydropyrimidin-1(2H)-yl)-3,5-difluorophenyl)azetidine-3-carbonyl)-2-methylpiperazin-1-yl)cyclohexyl)-6-(2-hydroxypropan-2-yl)-2H-indazol-5-yl)pyrrolo[1,2-b]pyridazine-7-carboxamide]
- DC50 (IRAK4 [1]): 16 nM
- Dmax (IRAK4 [1]): 101%
- Dmax (IRAK4 [2]): 101%
- DC50 (IRAK4 [2]): 0.4 nM
